Test [1] has as its system HeLa (human cervical adenocarcinoma) cells. The test can be described thus: MTT antiproliferative assay, HeLa. The test is classed as cell-based. As to conditions: 72 h, mean ± SD of three independent experiments. As for the experimental part:
(§1) The growth inhibition activity was assessed according to the slightly modified procedure performed at the National Cancer Institute, Developmental Therapeutics Program.
(§2) The examined compounds were dissolved in DMSO (1 × 10^−2 M). The experiments were carried out on seven human tumor cell lines and a normal cell line. The following cell lines were used: HeLa (human cervical adenocarcinoma; purchased from ATCC), CaCo-2 (human colorectal adenocarcinoma), MCF-7 (human breast adenocarcinoma), CCRF-CEM (human acute lymphoblastic leukemia), Hut78 (T-cell lymphoma), THP-1 (acute monocytic leukemia), Burkitt lymphoma (Raji), and MDCK1 (Madine–Darby canine kidney). The MDCK1 cells were used between 24 and 26 passages.
(§3) The adherent cells were cultured in Dulbecco’s modified Eagle medium—DMEM (Gibco, Termo Fisher Scientific Inc., Leicestershire, England, UK), supplemented with 10% heat-inactivated fetal bovine serum (FBS, Gibco, Termo Fisher Scientific Inc., Leicestershire, England, UK), 2 mM glutamine, and 100U/0.1mg penicillin/streptomycin. The cells in suspension were cultured in RPMI 1640 (Gibco, Termo Fisher Scientific Inc., Leicestershire, England, UK) medium, supplemented with 10% FBS (Gibco, Termo Fisher Scientific Inc., Leicestershire, England, UK), 2 mM glutamine, 1 mM sodium pyruvate, and 10 mM HEPES. The cells were grown in a humidified atmosphere under the conditions of 37 °C/5% of CO2 gas in the CO2 incubator (IGO 150 CELLlife^TM, JOUAN, Thermo Fisher Scientific, Waltham, MA, USA).
(§4) The adherent cells (HeLa, CaCo-2, MCF-7, and MDCK-1) were plated in 96-well flat bottom plates (Greiner, Frickenhausen, Austria) at a concentration of 2 × 10^4 cells/mL. The suspension cells (Raji, THP-1, CCRF-CEM and Hut78) were plated in 96-well microtiter plates (Sarstead, Newton, NC, USA) at a concentration of 1 × 10^5 cells/mL. Twenty-four hours later, the cells were treated with test agents in […] and incubated for a further 72 h. The working dilutions were freshly prepared on the day of testing. The solvent was also tested for eventual inhibitory activity by adjusting its concentration to be the same as in the working concentrations. After 72 h of incubation, the cell growth rate was evaluated by performing the MTT assay, which detects dehydrogenase activity in viable cells. For this purpose, upon completion of the incubation period, the growth medium was discarded and 50 μL of MTT was added to each well at a concentration of 5 mg/mL. After four hours of incubation at 37 °C, the water insoluble MTT-formazan crystals were dissolved in 150 μL of dimethyl-sulfoxide (DMSO) for the adherent cells and in 10% SDS with 0.01 mol/L HCl for the cells grown in suspension. The absorbance (OD, optical density) was measured on a microplate reader (iMark, BIO RAD, Hercules, CA, USA) at 595 nm.
(§5) The percentage of live cells was calculated as follows: % = OD (sample) − OD (background)/OD (control) − OD (background) × 100.
(§6) The optical density (OD) of the background for the adherent cells is the OD of the MTT solution and DMSO; the OD (background) for the suspension cells is the OD of the culture medium with MTT and 10% SDS with 0.01 mol/L HCl; the OD (control) is the OD of the cells grown without the tested compounds.
(§7) The calculation of the GI50 value curves and QC analysis was performed using the Excel tools and GraphPadPrism software (La Jolla, CA, USA), v. 5.03. Briefly, individual concentration effect curves are generated by plotting the logarithm of the concentration of the tested compounds (X) vs. the corresponding percent inhibition values (Y) using the least squares fit. The best-fit GI50 values are calculated using log (inhibitor) versus normalized response—variable slope equation, where Y Ľ 100/(1 ţ 10 ((LogIC50 _ X) × HillSlope)). The QC criteria parameters (Z0, S:B, R2, HillSlope) were checked for every GI50 curve.

In test [2] the test system is MDCK1 (Madine–Darby canine kidney) cells. The test can be described thus: MTT antiproliferative assay, MDCK1. The test is classed as cell-based. As to conditions: mean ± SD of three independent experiments. The method, then: as §1, §2, §3, §4, §5, §6, §7
(In general: Tetrazolium dyes change colour on reduction, which living cells bring about.)

Test [3] has as its system Raji (Burkitt lymphoma) cells. As to the kind of experiment: MTT antiproliferative assay, Raji. The test is classed as cell-based, human. As to conditions: Homo sapiens, Raji; 72 h, MTT, mean ± SD of three independent experiments. As for the experimental part: as §1, §2, §3, §4, §5, §6, §7
Test [4] deals with HuT78 cells. The test can be described thus: Annexin V-FITC/PI apoptosis detection. The test is classed as cell-based, human. As to conditions: HuT78, 5 μM, 24 h. As for the experimental part:
The proapoptotic potential of compounds 5d and 12d was tested on the HuT78 cells using the Annexin V-FITC Apoptosis Staining/Detection Kit (ab14085; abcam, UK). The cells were plated in 6-well plates at a concentration of 5 × 10^5 cells/well and treated for 24 h with 12d at a concentration of 5 μM. After the incubation period, the cells were collected and centrifuged at 1100 rpm for 6 min, stained according to the manufacturer‘s protocol, and analyzed by flow cytometry (BD FACSCalibur, Becton Dickinson, San Jose, CA, USA) using FlowJo software (FlowJo, LLC, Ashland, OR, USA).

Test [5] concerns CCRF-CEM (human acute lymphoblastic leukemia) cells. As to the kind of experiment: MTT antiproliferative assay, CCRF-CEM. As to conditions: Homo sapiens, CCRF-CEM; 72 h, MTT, mean ± SD of three independent experiments. It is filed as cell-based. The method, then:
as §1, §2, §3, §4, §5, §6, §7

Test [6] deals with HuT78 cells. The test can be described thus: Flow cytometry analysis of cell cycle, HuT78. It is filed as cell-based, human. As to conditions: HuT78, 5 μM, 24 h. The method, then: To analyze the effects of the selected compounds (5d, 8d, and 12d) on the cell cycle of the HuT78 and THP-1 cells, the cells were seeded in 6-well plates (5 × 10^5 cells per well) and treated for 24 h with the selected compounds 5d and 12d (5 μM). The cells were then collected and fixed in cold 70% ethanol. The fixed samples were stained with 15 µg/mL of propidium iodide (PI) at room temperature and analyzed by flow cytometry (FACS Canto II, BD Biosciences). The results were analyzed using FlowLogic software.
One-way ANOVA analysis of variance was performed in the MedCalc statistical program for the analysis of the cell cycle. p-values of less than 0.05 were considered to be statistically significant.
A general note: A flow cytometer gives signals particle by particle.

Regarding `Clc1ccc2c(Nc3cccc(-c4nc5ccccc5[nH]4)c3)ccnc2c1` [Compound 5d, N-(3-(1H-benzo[d]imidazol-2-yl)phenyl)-7-chloroquinolin-4-amine], the GI50 (usually the concentration that inhibits growth by half) in test [1] came out at 700 ± 100 nM. Besides, halving of growth in test [2] (72 h) (GI50) required 20.4 ± 2.8 µM. Moreover, in test [2] (Canis lupus familiaris, MDCK1, 72 h), the 50% growth inhibitory concentration (GI50) is 11.4 to 20.4 µM. This molecule also showed a GI50 in test [3] of 4.3 ± 1.2 µM. In the test with HuT78 cells [4], the cells alive entry is “about 64%”, the “cells in early apoptosis” value is on record as 24.75% and the “cells in late stage of apoptosis/necrosis” value amounted to 8.3%. Also, in test [5], growth was halved (GI50) at 8.2 ± 6.2 µM. Besides, in the test on HuT78 cells [6], the “proportion of polyploid giant cancer cells” value is given as “increased proportion”. Moreover, in the test on HuT78 cells [6] (vs control), the “decrease in G0/G1 phase” value turned out to be 5 times, the “increase in G2/M phase” value amounted to 2 times and the “increase of cells in subG0/G1 phase” value is 13 times.

The values are drawn from article PMC9866588, “Novel 7-Chloro-4-aminoquinoline-benzimidazole Hybrids as Inhibitors of Cancer Cells Growth: Synthesis, Antiproliferative Activity, in Silico ADME Predictions, and Docking” (Molecules, 2023).
